In patent US20230235084A1, “COMPOSITIONS AND METHODS FOR TARGETED PROTEIN STABILIZATION BY REDIRECTING ENDOGENOUS DEUBIQUITINASES” (THE TRUSTEES OF COLUMBIA UNIVERSITY IN THE CITY OF NEW YORK, priority 2020, published 2023):
Values belong to the molecule of their own block, whether it stands above or below them.

Experiments:
KCNQ1 = assay: Whole-cell patch clamp of KCNQ1 currents in CHO cells; format: cell-based, human
Method: Whole-cell patch clamp electrophysiology was used to determine functionality of enDUB-O1-rescued KCNQ1 channels.
Chinese hamster ovary (CHO) cells were obtained from ATCC and cultured at 37° C. in Kaighn’s Modified Ham’s F-12K (ATCC) supplemented with 8% FBS and 100 mg/mL of penicillin-streptomycin. CHO cells were transiently transfected with desired constructs in 35 mm tissue culture dishes—KCNQ1 (0.5 µg) and nano-P2A-CFP (0.5 µg) or enDUBO1-P2A-CFP (0.5 µg) using X-tremeGENE HP (1:2 DNA/reagent ratio) according to the manufacturers’ instructions (Roche).
For potassium channel measurements, whole-cell membrane currents were recorded at room temperature in CHO cells using an EPC-10 patch-clamp amplifier (HEKA Electronics) controlled by the PatchMaster software (HEKA). A coverslip with adherent CHO cells was placed on the glass bottom of a recording chamber (0.7-1 mL in volume) mounted on the stage of an inverted Nikon Eclipse Ti-U microscope. Micropipettes were fashioned from 1.5 mm thin-walled glass and fire-polished. […] Pipette resistance was typically 1.5 MΩ when filled with internal solution. I-V curves were generated from a family of step depolarizations (-40 to +100 mV in 10 mV steps from a holding potential of -80 mV). Currents were sampled at 20 kHz and filtered at 5 kHz. Traces were acquired at a repetition interval of 10 s.

CFTR [1] = assay: Whole-cell patch clamp of CFTR currents in HEK293 cells; format: cell-based, human
Source text: A critical next step was to determine whether enDUB-U21-rescued mutant CFTR channels are functional. We focused on N1303K and 4326delTC to represent Class II and Class VI mutations, respectively. HEK293 cells expressing WT CFTR display robust forskolin-activated chloride currents that are blocked by CFTR inhibitor (FIGS. 3C and 3D), and not observed in untransfected cells (FIG. 3E). By contrast, cells expressing either N1303K or 4326delTC alone yielded no forskolin-induced currents (FIGS. 3F and 3G) consistent with their limited surface trafficking and status as disease-causing mutants.
For CFTR channel measurements, whole-cell recordings were carried out in HEK293 and FRT cells at room temperature. Internal solution contained (mM): 113 L-aspartic acid, 113 CsOH, 27 CsCl, 1 NaCl, 1 MgCl2, 1 EGTA, 10 TES, 3 MgATP (pH 7.2). External contained (in mM): 145 NaCl, 4 CsCl, 1 CaCl2, 1 MgCl2, 10 glucose, and 10 TES (pH 7.4). I-V curves were generated from a family of step depolarizations (-80 to +80 mV in 20 mV steps from a holding potential of -40 mV). CFTR currents were activated by perfusion with 10 µM forskolin. In experiments utilizing lumacaftor (3 µM), the drug was added for 24 hrs posttransfection and incubated at 37° C. Ivacaftor was used acutely at 5 µM concentration. Currents were sampled at 20 kHz and filtered at 7 kHz. Traces were acquired at a repetition interval of 10 s.

BBS-CFTR-YFP = assay: Flow cytometry assay of CFTR surface density in HEK293 cells; format: cell-based, human
Source text: BBS-tagged YFP-CFTR was engineered to enable simultaneous assessment of total channel expression and surface density using flow cytometry, and probed the impact of six distinct mutations previously categorized as Class II (F508del, R560T, N1303K) or Class VI (Q1412X, 4279insA, 4326delTC) mutations, respectively (FIG. 3A). All six mutations markedly impaired channel surface density compared to WT CFTR (FIG. 3B, black bars). […] We utilized a second enDUB (enDUB-U21) that comprises the catalytic component of ubiquitin-specific protease USP21 (FIG. 3A), which removes all ubiquitin linkage types (Faesen et al. 2011).
Cell surface and total ion channel pools were assayed by flow cytometry in live, transfected HEK293 cells as previously described (Kanner et al. 2017; Kanner et al. 2018). Briefly, 48 hrs post-transfection, cells cultured in 12-well plates gently washed with ice cold PBS containing Ca^2+ and Mg^2+ (in mM: 0.9 CaCl2, 0.49 MgCl2, pH 7.4), and then incubated for 30 min in blocking medium (DMEM with 3% BSA) at 4° C. HEK293 cells were then incubated with 1 µM Alexa Fluor 647 conjugated α-bungarotoxin (BTX647; Life Technologies) in DMEM/3% BSA on a rocker at 4° C. for 1 hr, followed by washing three times with PBS (containing Ca^2+ and Mg^2+ ). […]

full-length CFTR = target: T1, full-length CFTR (Homo sapiens, UniProt P13569); assay: Flow cytometric FRET binding assay in HEK293 cells; details: Cerulean-nanobody donor, Venus-CFTR acceptor
T1 construct: expressed in transfected cells; host or cells: HEK293
Source text: (§1) While GFP-targeted enDUBs provided critical proof-of-concept efficacy for the targeted deubiquitination approach in rescuing different trafficking-deficient recombinant mutant channels, a key next step was to develop nanobodies towards CFTR itself to enable targeting of endogenous channels. Accordingly, we used purified CFTR NBD1 domain (FIG. 4A) as bait to identify binders using a yeast nanobody library surface display approach (McMahon et al. 2018) (FIG. 4B). After several rounds of magnetic-activated cell sorting (MACS) and fluorescence-activated cell sorting (FACS) selection we isolated 14 unique nanobody binders with a range of affinities for NBD1 as reported by an on-yeast binding assay (FIG. 12A; Table 1). […] Binding of nb.E3h to full-length CFTR in cells was confirmed by a flow cytometric fluorescence resonance energy transfer (flow-FRET) assay (FIG. 4C).
FRET binding assays were performed via flow cytometry in live, transfected HEK293 cells as previously described (Lee et al. 2016). […] Cerulean (Cer), Venus (Ven), and FRET signals were analyzed using the following laser / filter set configurations: BV421 (Ex: 405 nm, Em: 450/50), FITC (Ex: 488 nm, Em: 525/50), and BV520 (Ex: 405 nm, Em: 525/50), respectively. […]

CFTR [2] = assay: YFP halide quenching assay in HEK293 cells; format: cell-based, human; details: HEK293, pilot screen of nanobodies
Source text: as §1
Target sequence in this assay (P13569 387-646 limits assumed): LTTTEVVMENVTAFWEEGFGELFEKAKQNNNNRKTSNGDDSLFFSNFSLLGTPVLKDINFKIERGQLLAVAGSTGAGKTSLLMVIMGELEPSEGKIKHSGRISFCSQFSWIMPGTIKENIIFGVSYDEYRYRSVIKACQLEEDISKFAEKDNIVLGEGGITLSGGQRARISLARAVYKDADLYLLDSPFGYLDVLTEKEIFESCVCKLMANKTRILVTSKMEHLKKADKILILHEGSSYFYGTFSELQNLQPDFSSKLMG
A YFP halide quenching plate-reader assay was adapted from previous work (Galietta et al. 2001). […] Baseline YFP readings (Ex: 510 nm, Em: 538 nm) were taken using a SpectraMax M5 plate-reader (Molecular Devices). An equal amount of 2× activation solution, containing iodide, was added to obtain a final concentration (70 mM Nal, 10 µM forskolin, 5 µM VX770), and a time series recording YFP fluorescence was taken every 2 s. […]

T1 sequence (P13569 whole entry): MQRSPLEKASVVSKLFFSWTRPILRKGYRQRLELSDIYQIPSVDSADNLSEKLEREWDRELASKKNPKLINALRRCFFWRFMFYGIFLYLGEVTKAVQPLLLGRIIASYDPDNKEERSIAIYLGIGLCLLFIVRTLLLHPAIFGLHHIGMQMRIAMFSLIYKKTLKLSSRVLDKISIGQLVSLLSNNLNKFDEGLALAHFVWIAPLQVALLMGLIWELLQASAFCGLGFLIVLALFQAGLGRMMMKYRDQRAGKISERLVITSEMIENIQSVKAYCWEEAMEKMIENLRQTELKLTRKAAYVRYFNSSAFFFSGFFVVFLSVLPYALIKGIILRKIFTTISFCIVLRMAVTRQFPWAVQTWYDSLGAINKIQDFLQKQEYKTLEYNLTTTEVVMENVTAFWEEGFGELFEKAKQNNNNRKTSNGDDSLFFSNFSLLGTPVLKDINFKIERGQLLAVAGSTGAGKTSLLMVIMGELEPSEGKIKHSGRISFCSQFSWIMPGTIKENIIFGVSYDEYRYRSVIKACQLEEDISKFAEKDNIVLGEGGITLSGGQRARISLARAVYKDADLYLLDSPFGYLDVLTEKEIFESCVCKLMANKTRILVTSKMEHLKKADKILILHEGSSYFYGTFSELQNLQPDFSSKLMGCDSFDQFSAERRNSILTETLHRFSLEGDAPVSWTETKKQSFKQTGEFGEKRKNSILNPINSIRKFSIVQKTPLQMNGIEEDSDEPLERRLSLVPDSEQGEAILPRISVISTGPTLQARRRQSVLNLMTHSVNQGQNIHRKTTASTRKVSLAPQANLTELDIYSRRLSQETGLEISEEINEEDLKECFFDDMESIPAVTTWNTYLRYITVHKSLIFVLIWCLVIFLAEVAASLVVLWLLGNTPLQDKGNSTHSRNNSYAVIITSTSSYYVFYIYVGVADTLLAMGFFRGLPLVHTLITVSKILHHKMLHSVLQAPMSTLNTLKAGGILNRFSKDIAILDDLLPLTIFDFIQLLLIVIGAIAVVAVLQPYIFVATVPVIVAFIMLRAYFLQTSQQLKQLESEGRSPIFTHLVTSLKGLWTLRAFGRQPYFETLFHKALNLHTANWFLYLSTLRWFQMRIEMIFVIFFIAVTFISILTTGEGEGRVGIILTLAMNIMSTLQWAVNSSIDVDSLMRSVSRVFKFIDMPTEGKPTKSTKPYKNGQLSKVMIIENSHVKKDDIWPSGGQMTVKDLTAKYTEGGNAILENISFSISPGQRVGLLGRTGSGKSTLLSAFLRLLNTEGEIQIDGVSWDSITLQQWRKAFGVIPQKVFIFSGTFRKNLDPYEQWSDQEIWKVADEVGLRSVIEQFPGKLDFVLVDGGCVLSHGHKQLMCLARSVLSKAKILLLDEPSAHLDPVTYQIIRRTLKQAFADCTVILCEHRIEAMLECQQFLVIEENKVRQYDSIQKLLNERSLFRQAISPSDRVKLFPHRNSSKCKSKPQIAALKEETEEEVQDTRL

Molecule: COc1ccc(-c2csc(NC(=O)[C@H]3CCCCN3S(=O)(=O)c3ccc(C)cc3)n2)cc1 [ML277, (R)-N-(4-(4-methoxyphenyl)thiazol-2-yl)-1-tosylpiperidine-2-carboxamide]
enDUB-O1-rescued R591H current amplitude (KCNQ1; R591H + enDUB-O1, ML277 1 µM): markedly increased enDUB-O1-rescued R591H current amplitude to beyond WT KCNQ1 levels
R591H KCNQ1 currents (KCNQ1; R591H + nano, 1 µM): modestly increased R591H currents

Molecule: CC(C)(C)c1cc(C(C)(C)C)c(NC(=O)c2c[nH]c3ccccc3c2=O)cc1O [ivacaftor]
Forskolin-stimulated 4326delTC or N1303K currents after ivacaftor (CFTR [1]; enDUB-U21 co-expression + lumacaftor, ivacaftor 5 µM): further enhanced
Forskolin-induced 4326delTC and N1303K currents after ivacaftor (CFTR [1]; nano-expressing HEK293 cells, lumacaftor pre-incubation, ivacaftor 5 µM): further elevated

Molecule: Cc1ccc(NC(=O)C2(c3ccc4c(c3)OC(F)(F)O4)CC2)nc1-c1cccc(C(=O)O)c1 [lumacaftor]
F508del and R560T CFTR surface expression (BBS-CFTR-YFP; lumacaftor 24 hrs pre-incubation or enDUB co-expression): did not increase F508del and R560T surface expression
Surface trafficking of the other four CFTR mutations (N1303K, Q1412X, 4279insA, 4326delTC) (BBS-CFTR-YFP; lumacaftor 24 hrs pre-incubation or enDUB co-expression (enDUB compared to lumacaftor)): improved trafficking of the remaining 4 mutations
Forskolin-induced 4326delTC and N1303K currents (CFTR [1]; nano-expressing HEK293 cells, lumacaftor pre-incubation): relatively small

Binding to full-length CFTR in cells (flow-FRET) (full-length CFTR): confirmed
B1: nb.E3h: CFTR (NBD1) target nanobody clone, SEQ ID No: 25 (protein)
VHH: QVQLQESGGGLVQAGGSLRLSCAASGTISGSGSMGWYRQAPGKEREFVAAINVGSNTYYADSVKGRFTISRDNAKNTVYLQMNSLKPEDTAVYYCAVRFGYYYRHTYWGQGTQVTVSS
modifications: nanobody
Performance in patch clamp assay when converted to an enDUB (CFTR [1]; HEK293): superior performance
Performance in halide sensor assay when converted to an enDUB (CFTR [2]): superior performance
